Experimental findings from US20130310436A1, “METHODS FOR PREDICTING RESPONSE TO BETA-BLOCKER THERAPY IN NON-ISCHEMIC HEART FAILURE PATIENTS” (The Regents of the University of Colorado, a body corporate, priority 2012, published 2013) are described below.

Common to all, as to assay type: in vivo, human
Test [1] concerns patients with non-ischemic HFREF. Kind of test: BEST trial retrospective analysis: cumulative all-cause mortality, bucindolol vs placebo, by latent class subtype. From the text: (§1) Methods: A total of 1121 patients with non-ischemic HFREF from the β-blocker Evaluation of Survival Trial were categorized according to 27 clinical features. See Tables 1 and 2 for the clinical features or information used. Latent class analysis was used to generate two latent class models, LCM A and B, Tables 3 and 4, respectively, to identify HFREF subtypes. LCM A consisted of features associated with HF pathogenesis, whereas LCM B consisted of markers of HF progression and severity. The Seattle Heart Failure Model (SHFM) Score was also calculated for all patients. Mortality, improvement in left ventricular ejection fraction (LVEF) defined as an increase in LVEF ≧5% and a final LVEF of […] after 12 months, and effect of bucindolol on both outcomes were compared across HFREF subtypes. Performance of models that included a combination of LCM subtypes and SHFM scores towards predicting mortality and LVEF response was estimated and subsequently validated using leave-one-out cross-validation and data from the Multicenter Oral Carvedilol Heart Failure Assessment (MOCHA) Trial.
(§2) Methods: All patients had New York Heart Association (NYHA) class III or IV HFREF (LVEF ≦35%) and were randomized in a double-blind fashion to either bucindolol (a β-blocker) or placebo. Patients were considered ischemic if they had ≧70% obstruction in a major epicardial coronary artery by angiography or evidence of prior myocardial infarction and excluded from this analysis. The primary endpoint was cumulative all-cause mortality. Secondary endpoints were all-cause mortality at one year and LVEF response defined as improvement in LVEF ≧5% with a final LVEF of ≧35% as measured using multi-gated acquisition scan (MUGA). […] They were randomized to placebo, low (6.25 mg bid), medium (12.5 mg bid), or high-dose (25 mg bid) carvedilol. Death and LVEF improvement as measured by MUGA were secondary endpoints in the original MOCHA analysis. Mortality data was only available up to one year of follow-up in MOCHA.
(§3) Association between latent class models and outcomes: Cox proportional-hazards models and the log-rank test were used to examine the associations between latent classes and cumulative all-cause mortality according to the intention-to-treat principle. These models were fit using the coxph and survfit functions from the survival library in the R statistical package. Logistic regression models were used for the one-year mortality and LVEF response outcomes. Interactions between latent classes and the treatment groups were used to estimate the response to treatment within each subtype.

For test [2] the test system is unchanged. Nature of the test: BEST trial retrospective analysis: all-cause mortality at one year, bucindolol vs placebo, by latent class subtype.
Source text: as §1
as §2, with “MOCHA. […]” for “MOCHA.”

Test [3] shares this test system. Nature of the test: BEST trial retrospective analysis: LVEF response (improvement in LVEF ≧5% with final LVEF ≧35%, MUGA), bucindolol vs placebo, by latent class subtype.
Source text: as §1, §2, §3

SMILES strings stand for the structures.

`CC(C)(Cc1c[nH]c2ccccc12)NCC(O)COc1ccccc1C#N` (stereo not shown) [bucindolol]: in test [1] (LCM A subtype A1), the “reduction in cumulative all-cause mortality associated with bucindolol” value is reported as “no reduction”. Moreover, the “reduction in mortality with bucindolol” value in test [1] (LCM A subtype A2 (discussion)) is recorded as “no significant reduction”. Moreover, the “all-cause mortality with bucindolol” value in test [1] (LCM A subtype A6, only LCM A subtype (discussion)) is on record as “decrease”. Further, the “absolute risk reduction, cumulative all-cause mortality” value in test [1] (LCM A subtype A6, p=0.01) is given as 10.2%. Further, in test [1] (LCM A subtype A6, p=0.01), the “relative risk reduction, cumulative all-cause mortality” value came out at 42%. Also, the “improvement in mortality associated with bucindolol” value in test [1] (LCM B subtype B2, p=0.01) is recorded as “significant improvement”. In test [1] (all non-ischemic BEST patients (discussion)), the “overall effect of bucindolol” value is reported as “not significant”. The “patients in the bucindolol group died (cumulative all-cause mortality)” value in test [1] (all non-ischemic BEST patients, 131/558) turned out to be 23.5%. For the same molecule, the “HR, cumulative all-cause mortality, bucindolol vs placebo” value in test [1] (all non-ischemic BEST patients, 95% CI 0.65-1.04, p=0.1) is 0.82. The “effect of bucindolol on one-year mortality” value was “marginally significant difference” in test [2] (LCM A subtype A3, at 12 months, disappeared at subsequent follow-up); “trended towards benefit” in test [2] (LCM A subtype A6, did not reach statistical significance); “trended towards benefit” in test [2] (LCM B subtype B2, did not reach statistical significance). In addition, the “likelihood of LVEF response with bucindolol” value in test [3] (LCM A subtype A1) is given as “no effect”; in test [3] (LCM A subtype A2) it was “significant increase”; in test [3] (LCM A subtype A3), “significant increase”; in test [3] (LCM A subtype A5), “significant increase”; in test [3] (LCM A subtype A6), “significant increase”. The “absolute increase in likelihood of LVEF response” value in test [3] (LCM A subtype A3) is reported as 24.3%. Besides, in test [3] (LCM A subtype A3), the “relative increase in likelihood of LVEF response” value stood at 156%. For the same molecule, the “likelihood of improvement in LVEF” value is “reached statistical significance” in test [3] (LCM B subtype B1); “reached statistical significance” in test [3] (LCM B subtype B2); “increased comparably” in test [3] (all LCM B subtypes, relative and absolute terms).
